This note sets out measurements from patent publication US12286442B2, “Methods and materials for increasing transcription factor eb polypeptide levels” (University of Pittsburgh—Of the Commonwealth System of …, priority 2019, dated 2025).

One data set deals with TFEB. The experiment in a line: High content screen measuring TFEB nuclear accumulation (TFEB nuclear/cytosol ratio) in BEAS-2B cells stably expressing TFEB-EGFP. The format is cell-based, human. Particulars: 18 hours incubation. In short, it runs like this: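 BEAS-2B cells stably expressing TFEB-EGFP (~2300–2500 per well) pre-incubated 8 hours, then exposed to serially diluted compounds (DMEM low glucose, 2% FBS) for 18 hours, PFA-fixed and DAPI-stained. Imaged nuclear (DAPI mask) vs cytosolic (expanded mask) TFEB-GFP; activity = minimal concentration raising nuclear/cytosol ratio by 25%.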

In another data set the test system is BEAS-2B cells. Description: Toxicity: compound concentration needed to induce greater than 50 percent of cell loss. The format is cell-based, human. Particulars: 18 hours incubation. In short, it runs like this: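 BEAS-2B cells stably expressing TFEB-EGFP treated with serial compound dilutions for 18 h, then PFA-fixed, DAPI-stained and imaged. Toxicity scored as the concentration causing >50% cell loss, binned as ≥25 μM, <25 and >1 μM, or ≤1 μM ("+++").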

`COc1cccc(Nc2nc(-c3ccncc3)nc3ccccc23)c1` [Compound 190]: the “efficacy (minimal compound concentration needed to increase TFEB nuclear/cytosol ratio by 25%)” value in the data set with TFEB was “++ (“++” equals between ≤25 μM and >1 μM)”. The “toxicity (compound concentration needed to induce greater than 50 percent of cell loss)” value in the data set on BEAS-2B cells is “+ (cell loss of greater than 50 percent at a concentration that equals or is greater than 25 μM was represented as)”.
For the molecule `c1ccc2c(Nc3ccc4[nH]nnc4c3)nc(-c3ccncc3)nc2c1` [Compound 191], the “efficacy (minimal compound concentration needed to increase TFEB nuclear/cytosol ratio by 25%)” value with TFEB is on record as “+++ (“+++” equals ≤1 μM)”. Also, the “toxicity (compound concentration needed to induce greater than 50 percent of cell loss)” value with BEAS-2B cells is “+ (cell loss of greater than 50 percent at a concentration that equals or is greater than 25 μM was represented as)”.
As to `Cc1nc2ccc(Nc3nc(-c4ccncc4)nc4ccccc34)cc2s1` [Compound 192], in the data set with TFEB, the “efficacy (minimal compound concentration needed to increase TFEB nuclear/cytosol ratio by 25%)” value is on record as “+++ (“+++” equals ≤1 μM)”. Besides, the “toxicity (compound concentration needed to induce greater than 50 percent of cell loss)” value in the data set on BEAS-2B cells is “+ (cell loss of greater than 50 percent at a concentration that equals or is greater than 25 μM was represented as)”.
For the molecule `c1ccc2c(Nc3ccc4[nH]cnc4c3)nc(-c3ccncc3)nc2c1` [Compound 193], the “efficacy (minimal compound concentration needed to increase TFEB nuclear/cytosol ratio by 25%)” value with TFEB was “++ (“++” equals between ≤25 μM and >1 μM)”. Also, the “toxicity (compound concentration needed to induce greater than 50 percent of cell loss)” value in the data set with BEAS-2B cells was “++ (cell loss of greater than 50 percent at a concentration less than 25 μM and greater than 1 μM was represented as)”.
In the case of `Fc1cccc(Nc2nc(-c3ccncc3)nc3ccncc23)c1` [Compound 194], in the data set on TFEB, the “efficacy (minimal compound concentration needed to increase TFEB nuclear/cytosol ratio by 25%)” value is “+++ (“+++” equals ≤1 μM)”. Moreover, the “toxicity (compound concentration needed to induce greater than 50 percent of cell loss)” value in the data set on BEAS-2B cells is on record as “+ (cell loss of greater than 50 percent at a concentration that equals or is greater than 25 μM was represented as)”.
For `Cc1ccc(-c2nc(Nc3cc(F)ccc3C)c3ccccc3n2)cc1` [Compound 195], in that order: “+ (“+” equals >25 μM)” and “+ (cell loss of greater than 50 percent at a concentration that equals or is greater than 25 μM was represented as)”.
The corresponding values for `Fc1ccc(Nc2nc(-c3cccnc3)nc3ccccc23)cc1F` [Compound 196] are “+ (“+” equals >25 μM)” and “+ (cell loss of greater than 50 percent at a concentration that equals or is greater than 25 μM was represented as)”.
For `Cc1ccc(Nc2nc(-c3ccc(C)cc3)nc3ccccc23)cc1` [Compound 197], in that order: “+ (“+” equals >25 μM)” and “+ (cell loss of greater than 50 percent at a concentration that equals or is greater than 25 μM was represented as)”.
Turning to `COc1cc(-c2nc(Nc3cc(F)ccc3C)c3ccccc3n2)cc(OC)c1OC` [Compound 198], the “efficacy (minimal compound concentration needed to increase TFEB nuclear/cytosol ratio by 25%)” value in the data set on TFEB is given as “+ (“+” equals >25 μM)”. Besides, the “toxicity (compound concentration needed to induce greater than 50 percent of cell loss)” value in the data set with BEAS-2B cells is listed as “+ (cell loss of greater than 50 percent at a concentration that equals or is greater than 25 μM was represented as)”.
For `Cc1ccc(Nc2nc(-c3ccccc3Cl)nc3ccccc23)c(C)c1` [Compound 199], the “efficacy (minimal compound concentration needed to increase TFEB nuclear/cytosol ratio by 25%)” value in the data set on TFEB is given as “+ (“+” equals >25 μM)”. Also, the “toxicity (compound concentration needed to induce greater than 50 percent of cell loss)” value in the data set on BEAS-2B cells was “+ (cell loss of greater than 50 percent at a concentration that equals or is greater than 25 μM was represented as)”.
For `Cc1ccc(Nc2nc(-c3ccc([N+](=O)[O-])cc3)nc3ccccc23)c(C)c1` [Compound 200], the “efficacy (minimal compound concentration needed to increase TFEB nuclear/cytosol ratio by 25%)” value in the data set with TFEB is “++ (“++” equals between ≤25 μM and >1 μM)”. Further, in the data set with BEAS-2B cells, the “toxicity (compound concentration needed to induce greater than 50 percent of cell loss)” value is recorded as “+ (cell loss of greater than 50 percent at a concentration that equals or is greater than 25 μM was represented as)”.
Take `Cc1ccc(-c2nc(Nc3ccccc3F)c3ccccc3n2)cc1` [Compound 201]: the “efficacy (minimal compound concentration needed to increase TFEB nuclear/cytosol ratio by 25%)” value with TFEB was “+ (“+” equals >25 μM)”. For the same molecule, the “toxicity (compound concentration needed to induce greater than 50 percent of cell loss)” value in the data set on BEAS-2B cells is “+ (cell loss of greater than 50 percent at a concentration that equals or is greater than 25 μM was represented as)”.
For `Cc1ccc(-c2nc(Nc3ccc(C)c(F)c3)c3ccccc3n2)cc1` [Compound 202], in that order: “+ (“+” equals >25 μM)” and “+ (cell loss of greater than 50 percent at a concentration that equals or is greater than 25 μM was represented as)”.
The corresponding values for `COc1cc(-n2c(=O)c3ccccc3n(CC(=O)Nc3ccc(C(C)C)cc3)c2=O)cc(OC)c1OC` [Compound 214] are “+ (“+” equals >25 μM)” and “+ (cell loss of greater than 50 percent at a concentration that equals or is greater than 25 μM was represented as)”.
With `COc1ccc(-n2c(=O)c3ccc(C(=O)NCCc4ccccc4)cc3n(Cc3cccc(F)c3)c2=O)cc1` [Compound 215], the “efficacy (minimal compound concentration needed to increase TFEB nuclear/cytosol ratio by 25%)” value in the data set with TFEB is “++ (“++” equals between ≤25 μM and >1 μM)”. The “toxicity (compound concentration needed to induce greater than 50 percent of cell loss)” value in the data set on BEAS-2B cells was “++ (cell loss of greater than 50 percent at a concentration less than 25 μM and greater than 1 μM was represented as)”.
Consider `CCC(C)NC(=O)Cn1c(=O)n(-c2ccc(OC)cc2)c(=O)c2ccc(C(=O)NCc3ccc(C)cc3)cc21` (stereo not drawn) [Compound 216], for which the “efficacy (minimal compound concentration needed to increase TFEB nuclear/cytosol ratio by 25%)” value in the data set on TFEB is reported as “+ (“+” equals >25 μM)”. Besides, in the data set on BEAS-2B cells, the “toxicity (compound concentration needed to induce greater than 50 percent of cell loss)” value is “+ (cell loss of greater than 50 percent at a concentration that equals or is greater than 25 μM was represented as)”.
The corresponding values for `O=C(Cn1c(=O)n(CC2CCCO2)c(=O)c2ccc(C(=O)NCCc3ccccc3)cc21)Nc1ccc(Br)cc1` (stereo not drawn) [Compound 217] are “+ (“+” equals >25 μM)” and “+ (cell loss of greater than 50 percent at a concentration that equals or is greater than 25 μM was represented as)”.
For `COc1ccc(-n2c(=O)c3ccc(C(=O)NCc4ccc(C)cc4)cc3n(CC(=O)Nc3cc(C)[nH]n3)c2=O)cc1` [Compound 218], in that order: “+ (“+” equals >25 μM)” and “+ (cell loss of greater than 50 percent at a concentration that equals or is greater than 25 μM was represented as)”.
With `Cc1ccc(NC(=O)Cn2c(=O)n(-c3ccccc3)c(=O)c3ccc(C(=O)NCc4ccco4)cc32)cc1` [Compound 219], the “efficacy (minimal compound concentration needed to increase TFEB nuclear/cytosol ratio by 25%)” value with TFEB is given as “+ (“+” equals >25 μM)”. For the same molecule, the “toxicity (compound concentration needed to induce greater than 50 percent of cell loss)” value in the data set with BEAS-2B cells is given as “+ (cell loss of greater than 50 percent at a concentration that equals or is greater than 25 μM was represented as)”.
`COc1ccc(NC(=O)Cn2c(=O)n(-c3ccc(C)cc3)c(=O)c3ccccc32)cc1` [Compound 220]: the “efficacy (minimal compound concentration needed to increase TFEB nuclear/cytosol ratio by 25%)” value with TFEB is on record as “+ (“+” equals >25 μM)”. Further, the “toxicity (compound concentration needed to induce greater than 50 percent of cell loss)” value in the data set on BEAS-2B cells was “+ (cell loss of greater than 50 percent at a concentration that equals or is greater than 25 μM was represented as)”.
The corresponding values for `COc1ccc(NC(=O)Cn2c(=O)n(-c3ccc(CC(=O)NCCc4ccccc4)cc3)c(=O)c3ccccc32)cc1` [Compound 221] are “+ (“+” equals >25 μM)” and “+ (cell loss of greater than 50 percent at a concentration that equals or is greater than 25 μM was represented as)”.
Consider `COc1ccc(-n2c(=O)c3ccc(C(=O)NCCc4ccccc4)cc3n(CC(=O)Nc3ccc(C)cc3)c2=O)cc1` [Compound 222], for which the “efficacy (minimal compound concentration needed to increase TFEB nuclear/cytosol ratio by 25%)” value with TFEB was “++ (“++” equals between ≤25 μM and >1 μM)”. Moreover, the “toxicity (compound concentration needed to induce greater than 50 percent of cell loss)” value in the data set with BEAS-2B cells was “++ (cell loss of greater than 50 percent at a concentration less than 25 μM and greater than 1 μM was represented as)”.
As for `Cc1cc(C)cc(-n2c(=O)c3ccccc3n(CC(=O)Nc3c(C)cc(C)cc3C)c2=O)c1` [Compound 223], the “efficacy (minimal compound concentration needed to increase TFEB nuclear/cytosol ratio by 25%)” value in the data set on TFEB is recorded as “+ (“+” equals >25 μM)”. Also, the “toxicity (compound concentration needed to induce greater than 50 percent of cell loss)” value in the data set on BEAS-2B cells is listed as “+ (cell loss of greater than 50 percent at a concentration that equals or is greater than 25 μM was represented as)”.
For `Cn1c(=O)c2ccccc2n(CC(=O)Nc2ccccc2)c1=O` [Compound 224], in that order: “+ (“+” equals >25 μM)” and “+ (cell loss of greater than 50 percent at a concentration that equals or is greater than 25 μM was represented as)”.
In the case of `Cn1c(=O)c2ccccc2n(CC(=O)Nc2ccc(F)cc2)c1=O` [Compound 225], the “efficacy (minimal compound concentration needed to increase TFEB nuclear/cytosol ratio by 25%)” value with TFEB is reported as “+ (“+” equals >25 μM)”. In the data set on BEAS-2B cells, the “toxicity (compound concentration needed to induce greater than 50 percent of cell loss)” value is recorded as “+ (cell loss of greater than 50 percent at a concentration that equals or is greater than 25 μM was represented as)”.
On to `CCn1c(=O)c2ccccc2n(CC(=O)Nc2ccccc2)c1=O` [Compound 226], for which the “efficacy (minimal compound concentration needed to increase TFEB nuclear/cytosol ratio by 25%)” value in the data set on TFEB is “+ (“+” equals >25 μM)”. The “toxicity (compound concentration needed to induce greater than 50 percent of cell loss)” value with BEAS-2B cells is “+ (cell loss of greater than 50 percent at a concentration that equals or is greater than 25 μM was represented as)”.
For `O=C(Cn1c(=O)n(-c2ccccc2)c(=O)c2ccccc21)Nc1cccc(Cl)c1` [Compound 227], in that order: “+ (“+” equals >25 μM)” and “+ (cell loss of greater than 50 percent at a concentration that equals or is greater than 25 μM was represented as)”.
